In publication PMC4840323, “Plasiatine, an Unprecedented Indole–Phenylpropanoid Hybrid from Plantago asiatica as a Potent Activator of the Nonreceptor Protein Tyrosine Phosphatase Shp2” (Scientific Reports, 2016):

Biological target: T1, Shp2 (Src homology 2-containing phosphotyrosine phosphatase 2) (Homo sapiens, UniProt Q06124)
T1 construct: gene PTPN11; GST-PTP fusion proteins of human Shp2 (residues 205–597)
T1 sequence (Q06124 205-593): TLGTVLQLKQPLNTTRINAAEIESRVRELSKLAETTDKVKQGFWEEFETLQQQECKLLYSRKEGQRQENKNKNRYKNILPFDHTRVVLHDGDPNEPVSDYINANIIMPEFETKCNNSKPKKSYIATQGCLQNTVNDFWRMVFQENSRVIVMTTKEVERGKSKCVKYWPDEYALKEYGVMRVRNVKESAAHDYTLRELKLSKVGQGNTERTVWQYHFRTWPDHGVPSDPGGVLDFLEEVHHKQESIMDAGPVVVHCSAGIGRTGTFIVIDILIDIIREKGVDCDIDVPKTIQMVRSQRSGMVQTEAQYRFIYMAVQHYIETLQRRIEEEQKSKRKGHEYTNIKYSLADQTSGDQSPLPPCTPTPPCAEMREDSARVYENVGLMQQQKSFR
Assay: activation of recombinant GST-Shp2 phosphatase activity, DiFMUP fluorescence assay
Format: biochemical

EC50: 970 nM
Structure (SMILES): COc1cc([C@H]2Oc3cc4c(cc3[C@@H]2CO)NC(=O)[C@@]4(O)CC#N)ccc1O [compound 1, plasiatine]
